The source of these data is patent publication US9011936B2, “Extract of Rosmarinus officinalis L. leaves for pharmaceutical applications” (Naturex, S.A., priority 2009, dated 2015).

One assay deals with LDL. As to the kind of experiment: Cu^2+-induced LDL oxidation in vitro (conjugated dienes, absorbance at 234 nm). Format: biochemical. On the set-up: key to Lag phase / Oxidation rate / Maximum quantity of dienes: NC: Not calculated since the samples totally inhibits the LDL from oxidation. On the procedure:
LDL was concentrated from the plasma of normolipidemic donors by density gradient ultracentrifugation. Prior to oxidation, LDL was diluted in a phosphate buffered saline (PBS) and dialyzed against PBS at 4° C. to remove EDTA. The protein content was determined and adjusted to obtain 0.125 mg of protein/mL. […] The amounts of conjugated dienes were measured by determining the increased absorbance at 234 nm at 10 min intervals for a course span of 720 min using a Tecan Ultra Spectrophotometer (Tecan, Austria). Results were expressed as the relative absorbance at 234 nm. The lag phase, oxidation rate, and the maximum quantity of conjugated dienes were calculated. Results are reported as the mean±SD of three trials for each test. Differential between groups was calculated using the Student's t-test (XLSTAT 2008, Addinsoft™, USA), and the statistical significance was set at P<0.05.

The subject of the next assay is olive oil-loaded mice. The settings on record: doses of 5-20 mg/kg; cited from earlier work.
Another assay concerns the target T1, human PPARγ (Homo sapiens, UniProt P37231).
T1 sequence (P37231 1-505): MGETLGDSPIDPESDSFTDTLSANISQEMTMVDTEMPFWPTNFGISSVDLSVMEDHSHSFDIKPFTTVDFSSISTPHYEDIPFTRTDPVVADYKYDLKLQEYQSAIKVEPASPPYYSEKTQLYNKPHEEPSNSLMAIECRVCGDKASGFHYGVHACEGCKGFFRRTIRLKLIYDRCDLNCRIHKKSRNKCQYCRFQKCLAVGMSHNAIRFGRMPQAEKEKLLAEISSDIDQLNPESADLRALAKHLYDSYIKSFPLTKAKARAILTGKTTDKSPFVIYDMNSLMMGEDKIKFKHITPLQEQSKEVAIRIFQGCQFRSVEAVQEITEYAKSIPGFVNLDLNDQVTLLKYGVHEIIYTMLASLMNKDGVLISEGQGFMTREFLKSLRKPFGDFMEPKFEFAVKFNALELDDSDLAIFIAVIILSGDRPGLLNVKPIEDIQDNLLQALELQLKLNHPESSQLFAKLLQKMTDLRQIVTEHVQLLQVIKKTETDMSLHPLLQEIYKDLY
The settings on record: cited from earlier work.

Another assay has as its target T2, pancreatic lipase (Homo sapiens, UniProt P16233).
T2 sequence (P16233 17-465): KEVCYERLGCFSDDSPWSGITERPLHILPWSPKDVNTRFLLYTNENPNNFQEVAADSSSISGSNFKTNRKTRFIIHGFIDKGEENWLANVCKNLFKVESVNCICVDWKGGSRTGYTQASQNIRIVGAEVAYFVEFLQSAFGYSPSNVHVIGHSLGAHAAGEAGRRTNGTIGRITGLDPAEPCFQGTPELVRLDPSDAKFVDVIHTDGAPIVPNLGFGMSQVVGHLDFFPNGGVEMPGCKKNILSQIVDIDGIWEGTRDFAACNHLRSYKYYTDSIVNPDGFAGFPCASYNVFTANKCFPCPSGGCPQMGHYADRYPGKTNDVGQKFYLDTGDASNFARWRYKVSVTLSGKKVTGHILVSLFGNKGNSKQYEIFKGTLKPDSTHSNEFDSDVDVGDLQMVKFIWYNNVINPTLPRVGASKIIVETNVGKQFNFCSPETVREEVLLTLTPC
The settings on record: cited from earlier work.

A further assay relates to mice fed a high fat diet. The settings on record: 20 mg/kg/day; after 14 days; cited from earlier work.

`Cc1c(C)c2c(c(C)c1O)CCC(C)(C(=O)O)O2` (stereo not shown) [Trolox]: in the assay with LDL (10 μM, mean ± SD, three trials), the Lag phase was 180 ± 5.2 min, the “Maximum quantity of dienes” value was 99.0 ± 1.2 nmol/mg of LDL and the Oxidation rate is 80.1 ± 4.1 min⁻¹. In the assay with LDL (100 μM), the Lag phase entry is “NC”, the “Maximum quantity of dienes” value was “NC”, the Oxidation rate entry is listed as “NC” and the “inhibition of LDL oxidation” value is recorded as “complete inhibition”.
For `CC(C)c1cc2c(c(O)c1O)[C@@]1(C(=O)O)CCCC(C)(C)[C@@H]1CC2` [carnosic acid], the triglyceride elevation result with olive oil-loaded mice is on record as “significantly inhibited”. In addition, on human PPARγ, the “activation of human PPARγ” value was “activators”. Further, the pancreatic lipase activity result on pancreatic lipase is on record as “substantially inhibited”. Also, the “gain of body weight and accumulation of epididymal fat weight” value in the assay on mice fed a high fat diet is listed as “reduced”.
`CC(C)c1cc2c(c(O)c1O)[C@@]13CCCC(C)(C)[C@@H]1C[C@@H]2OC3=O` [carnosol]: the “activation of human PPARγ” value at human PPARγ is recorded as “activators”. Besides, at pancreatic lipase, the pancreatic lipase activity entry was “substantially inhibited”.
